Measurements as given in US20060194698A1, “Use of herbs as a delivery system for bioactive phytochemicals” (priority 2003, published 2006).

How the values were obtained:
Alternaria = experiment: Essential oil components against Alternaria growth (saturated cotton swab suspended above culture); format: cell-based; details: pure essential oil component
Protocol: Antifungal activity of the essential oil components against Rhizoctonia and Pythium will be tested by means previously used to evaluate Alternaria growth. Briefly, a cotton swab saturated with the oil is suspended above a culture of the test pathogen. Fungal dry weight is then determined. Appropriate controls are performed.

Sclerotinia = experiment: Essential oil components / ground herbage against Sclerotinia and its sclerotia; format: cell-based; details: pure essential oil component

Row | SMILES | growth of Alternaria (Alternaria) | activity against the sclerotia of Sclerotinia (Sclerotinia) | growth of Sclerotinia (Sclerotinia)
1 | CC(C)=CCC/C(C)=C/CO [geraniol] | completely inhibit growth | inhibitory activity | completely inhibit growth
2 | C=C(C)[C@H]1CC=C(C)CC1 [limonene] | inhibit the growth of Alternaria, but not as effectively as cymene |  | 
3 | Cc1ccc(C(C)C)c(O)c1 [thymol] | completely inhibit growth | inhibitory activity | completely inhibit growth
4 | Cc1ccc(C(C)C)cc1O [carvacrol] | completely inhibit growth | inhibitory activity | completely inhibit growth
5 | Cc1ccc(C(C)C)cc1 [cymene, p-cymene] | reduce the growth |  | 
